Measured values: patent EP1674468A1, “Polymorphs of clopidogrel hydrobromide” (Ratiopharm GmbH, priority 2004, dated 2006)
Where a name gives a salt, the structure may show the parent alone. Read-outs that look alike come from different tables or passages of the source. Blank lines part the entries; values can stand above or below the molecule they belong to.

What was measured:
[1] = Experimental: Example 10: Stability of the forms (solvent mediated transformation studies)
To assess the stability of the anhydrous Forms A and B, solvent mediated transformation experiments were performed. […] This was tested by viewing a few crystals of Form A/Form B under the microscope by placing them on a glass plate with a cover-slip, adding a drop of water and spreading around the cover. […] Table 3: Results of the solvent mediated transformation studies

[2] = benzene/ acetonitrile 1:1, method example b (dissolved at 70°C, evaporation 24 hours at room temperature)
Experimental: Method example b: 100 mg of clopidogrel hydrobromide HY-1 were dissolved in 3-5 ml of the first solvent at a temperature of 70°C. 8-10 ml of the second solvent were added to the solution over 3-5 minutes to reduce the polarity until it becomes a saturated solution. The solvent mixture was allowed to evaporate for 24 hours at room temperature at ambient pressure for 24 hours. The precipitate was filtered off.

[3] = 100 mg in 5 ml, water bath at 80-100°C
Experimental: Method example 1: 100 mg of clopidogrel hydrobromide HY-1 obtained according to example Ba) was dissolved in 5 ml of the solvent on a water bath at 80-100°C with constant shaking and the solvent was allowed to evaporate slowly at room temperature for 24 hours at ambient pressure.

[4] = room temperature, closed glass container, after 8 to 10 month; PXRD, DSC, Raman
From the text: Polymorph Form B of clopidogrel hydrobromide obtained in example 2a) was stored at room temperature in a closed glass container.

platelet aggregation = conditions: 75 mg of base equivalent versus 325 mg of acetyl salicylic acid; cited from earlier work
[5] = in vivo; cited from earlier work

Resulting form ([1]; solvent toluene, 1 day/10-30°C): HY-2
Resulting form ([1]; solvent water, 1 day/20°C): HY-1
polymorph produced on stirring ([1]; toluene (200 mg in 3-5 ml), 10-30°C, 1-4 days, formed after 1 day, confirmed after 4 days and 2-4 weeks by PXRD, DSC, TGA, Raman): HY-2
Compound: COC(=O)[C@H](c1ccccc1Cl)N1CCc2sccc2C1 [A:B (1:1), clopidogrel hydrobromide]

Remarks (behaviour in the solvent mixture) [2]: Decomposition
solubility ([3]; solvent acetic acid): highly soluble
solubility ([3]; solvent acetone): soluble
solubility ([3]; solvent acetonitrile): soluble
solubility ([3]; solvent benzene): sparingly soluble
solubility ([3]; solvent chloroform): highly soluble
solubility ([3]; solvent cyclohexane): insoluble
solubility ([3]; solvent dichloromethane): highly soluble
solubility ([3]; solvent diethylether): insoluble
solubility ([3]; solvent dimethylformamide): soluble
solubility ([3]; solvent dioxane): soluble in hot
solubility ([3]; solvent ethanol): highly soluble
solubility ([3]; solvent ethylacetate): soluble in hot
solubility ([3]; solvent i-propanol): highly soluble
solubility ([3]; solvent methanol): highly soluble
solubility ([3]; solvent n-butanol): highly soluble
solubility ([3]; solvent n-decane): insoluble
solubility ([3]; solvent n-hexane): insoluble
solubility ([3]; solvent n-pentanol): soluble
solubility ([3]; solvent n-propanol): highly soluble
solubility ([3]; solvent nitromethane): soluble
solubility ([3]; solvent petrolether): insoluble
solubility ([3]; solvent tetrachloromethane): insoluble
solubility ([3]; solvent tetrahydrofurane): soluble in hot
solubility ([3]; solvent toluene): soluble in hot
solubility ([3]; solvent water): sparingly soluble in hot
solubility ([3]; solvent xylene): soluble in hot
Compound: COC(=O)[C@H](c1ccccc1Cl)N1CCc2sccc2C1 [Form HY-1, clopidogrel hydrobromide]

time span within which needle like crystals corresponding to HY-1 were formed ([1]; a few crystals on a glass plate under the microscope, a drop of water added): ≤ 30 min
time span within which the form is converted to the hydrate, i.e. HY-1 ([1]; apolar solvents containing minimal amounts of water): ≤ 1 h
Resulting form ([1]; solvent water, 30 min/25°C): HY-1
Compound: COC(=O)[C@H](c1ccccc1Cl)N1CCc2sccc2C1 [Form A, clopidogrel hydrobromide]

polymorphic form identified after storage [4]: Form E
Compound: COC(=O)[C@H](c1ccccc1Cl)N1CCc2sccc2C1 [Form B, clopidogrel hydrobromide]

Compound: COC(=O)[C@H](c1ccccc1Cl)N1CCc2sccc2C1 [Clopidogrel, (αS)-α-(2-chlorophenyl)-6,7-dihydrothieno[3,2-c]-pyridine-5(4H)-acetic acid methyl ester]
effectiveness in blocking platelet aggregation versus acetyl salicylic acid (platelet aggregation): more effective
gastrointestinal bleeding versus acetyl salicylic acid [5]: much less
